Test results from patent publication US10759809B2 (priority 2017, dated 2020).
Counter-ions that a name gives are not always drawn.

Experiments:
Kunming mice = test: animal or person; assay type: in vivo; conditions: Mus musculus, po, 1 h
SD rat = test: animal or person; assay type: in vivo; conditions: po, 1 h
SD rats = conditions: male, rat, in vivo
Mice = conditions: both, mouse, in vivo

Compound	ED50 (Kunming mice) [mg/kg]	ED50 (SD rat) [mg/kg]	Residence time in drug-side box (Mean ± S, s) (SD rats) [s]	Inhibition of activated carbon excretion (Mice) [%]
[2H]C([2H])(C1CC1)N1CC[C@]23c4c5ccc(O)c4O[C@H]2[C@@]2(OC)CC[C@@]3(C[C@@H]2[C@](C)(O)C(C)(C)C)[C@H]1C5 [I1•HCl, (2S)-2-[(5R, 6R, 7R, 14S)—N-(cyclopropyl-dideuteromethyl)-4,5-epoxy-6, 14-ethano-3-hydroxy-6-methoxymorphinan-7-yl]-3,3-dimethylbutan-2-ol]	6.54 ± 2.96	19 ± 7.29	149.19 ± 36.88	36.31 ± 2.78
[2H]C1C([2H])[C@]23C[C@H]([C@](C)(O)C(C)(C)C)[C@@]1(OC)C1Oc4c(O)ccc5c4[C@@]12CCN(CC1CC1)[C@@H]3C5 (stereo partly drawn) [I7•HCl, (2S)-2-[(5R, 6R, 7R, 14S)—N-(cyclopropyl-methyl)-4,5-epoxy-6,14-dideuteroethano-3-hydroxy-6-methoxymorphinan-7-yl]-3,3-dimethylbutan-2-ol]	12 ± 11.7	38 ± 19.7	–	–
CO[C@]12CC[C@@]3(C[C@@H]1[C@](C)(O)C(C)(C)C)[C@H]1Cc4ccc(O)c5c4[C@@]3(CCN1CC1CC1)[C@H]2O5 [buprenorphine•HCl, (2S)-2-[(5R, 6R, 7R, 14S)—N-cyclopropylmethyl-4,5-epoxy-6, 14-ethano-3-hydroxy-6-methoxymorphinan-7-yl]-3,3-di methylbutan-2-ol, reference compound]	11.8 ± 11.7	> 50	277.56 ± 164.99	63.87 ± 2.16
[2H]c1c([2H])c2c3c(c1O)O[C@H]1[C@@]4(OC)CC[C@@]5(C[C@@H]4[C@](C)(O)C(C)(C)C)[C@@H](C2)N(C([2H])([2H])C2CC2)CC[C@]315 [I6•HCl, (2S)-2-[(5R, 6R, 7R, 14S)-1,2-dideutero-N-(cyclopropyl-dideuteromethyl)-4,5-epoxy-6,14-ethano-3-hydroxy-6-methoxymorphinan-7-yl]-3,3-dimethylbutan-2-ol]	5.83 ± 2.23	18 ± 8.56	–	–
[2H]c1c([2H])c2c3c(c1O)O[C@H]1[C@@]4(OC)CC[C@@]5(C[C@@H]4[C@](C)(O)C(C)(C)C)[C@@H](C2)N(CC2CC2)CC[C@]315 [I5•HCl, (2S)-2-[(5R, 6R, 7R, 14S)-1,2-dideutero-N-cyclopropylmethyl-4,5-epoxy-6,14-ethano-3-hydroxy-6-methoxymorphinan-7-yl]-3,3-dimethylbutan-2-ol]	8.02 ± 11.3	31.1 ± 10.9	–	–
